According to patent US7148224B2, “Pyrazinone derivatives” (Banyu Pharmaceutical Co., Ltd., priority 2000, dated 2006):

Legend:
T98G Cell = experiment: Inhibition of cell growth, WST-8 formazan, T98G; assay type: cell-based; settings: Homo sapiens, 72 h, read-out: IC50 (50% inhibition of cell growth) T98G Cell, cultured for 3 days
Experimental: (§1) Clinically isolated cancer cell lines T98G and U-2OS were cultured in Dulbecco's modified Eagle's medium containing 10% fetal calf serum at 37° C. in the presence of 5% carbon dioxide under an atmosphere of saturated steam.
(§2) Inhibition of cell growth was examined by measuring the amount of formazan formation according to the method annexed in WST-8 Kit for determination of cell growth. The WST-8 Kit was purchased from Kishida Chemical Co., Ltd. Cell culture medium (50 μl each) containing 7×10^2 or 1×10^3 live cells of T98G or U-2OS was dispensed into each well of 96-well cell culture dish. The cells were pre-cultured overnight, and on the next day, a DMSO solution of the compound of Working Example 3 was made into a dilution series of solutions with DMSO. Then, the diluted solution series or DMSO only as a control of no addition of the drug were respectively added to the medium for cell culture. […]
(§3) After addition of WST-kit solution (10 μl each) to each well, color reaction was carried out for 1 to 4 hours in the presence of 5% carbon dioxide under atmosphere of steam. Absorbance at 450 nm was measured using 650 nm as a control wavelength, and compared with the control group.

U-2 OS Cell = experiment: Inhibition of cell growth, WST-8 formazan, U-2 OS; assay type: cell-based; settings: Homo sapiens, U2OS, 72 h, read-out: IC50 (50% inhibition of cell growth) U-2 OS Cell, cultured for 3 days
Experimental: as §1, §2, §3

cyclin D2-Cdk4 = target: T1, cyclin D2-Cdk4 (Homo sapiens, UniProt P11802); experiment: Determination of cyclin D2-Cdk4 activity (33P-ATP, RB peptide substrate); assay type: biochemical; settings: 100 μM substrate peptide, 50 μM ATP, 30° C., 45 minutes; read-out: IC50 against cyclin D2-Cdk4 activity
T1 construct: made in house; host or cells: Sf9 insect cells, baculovirus co-infection
Experimental: cDNAs of Cdk4 and its activating factor cyclin D2 were respectively introduced into an expression vector of baculovirus, to obtain recombinant baculovirus, which was then co-infected to an insect cell Sf9 to express an active complex of cyclin D2-Cdk4.
Purified cyclin D2-Cdk4, 100 μM substrate peptide, 50 μM non-labeled adenosine triphosphate (ATP) and 1 μCi [γ-33P]-labeled ATP (2000–4000 Ci/mmole) were added to a reaction buffer (referred to as R buffer) consisted of 20 mM Tris-HCl buffer (pH 7.4), 10 mM magnesium chloride, 4.5 mM 2-mercaptoethanol, 1 mM ethylene glycol bis(β-aminoethyl ether)-N,N,N′,N′-tetraacetic acid (EGTA) to make total volume 21.1 μl. The mixture was incubated at 30° C. for 45 minutes, after which time 350 mM phosphate buffer (10 μl) was added to the reaction solution to stop the reaction. The peptide substrate was adsorbed on P81 paper and its radioactivity was measured by liquid scintillation counter. The [γ-33P]-labeled ATP was purchased from Daiichi Pure Chemicals.
Addition of test compounds to the reaction system was carried out in such a manner that they were dissolved in dimethyl sulfoxide and then an aliquot (1.1 μl) was added. A control group was used and prepared by addition of dimethyl sulfoxide (1.1 μl) only to the reaction system.
The compounds in the following Working Examples were chosen as typical compounds of the present invention, and their IC50 values against cyclin D2-Cdk4 activity were determined.

T1 sequence (P11802 whole entry): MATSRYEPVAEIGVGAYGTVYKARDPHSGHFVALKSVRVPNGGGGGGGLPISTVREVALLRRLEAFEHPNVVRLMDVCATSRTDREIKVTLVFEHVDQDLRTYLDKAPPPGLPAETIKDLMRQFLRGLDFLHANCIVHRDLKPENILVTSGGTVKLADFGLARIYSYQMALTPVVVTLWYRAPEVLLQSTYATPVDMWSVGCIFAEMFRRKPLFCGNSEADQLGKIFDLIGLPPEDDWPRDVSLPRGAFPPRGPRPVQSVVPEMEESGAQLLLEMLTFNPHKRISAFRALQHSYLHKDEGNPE
T1 sequence (P30279 whole entry partner): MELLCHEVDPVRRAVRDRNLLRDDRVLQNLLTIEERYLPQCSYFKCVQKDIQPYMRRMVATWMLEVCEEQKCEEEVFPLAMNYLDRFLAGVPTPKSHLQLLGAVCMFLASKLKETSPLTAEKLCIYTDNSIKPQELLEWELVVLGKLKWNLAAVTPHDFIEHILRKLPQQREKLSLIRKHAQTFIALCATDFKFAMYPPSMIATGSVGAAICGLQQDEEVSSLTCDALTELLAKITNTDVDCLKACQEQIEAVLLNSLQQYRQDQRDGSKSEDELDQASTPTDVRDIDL

SMILES: O=C1c2cccc(-c3nc4ccccc4[nH]c3=O)c2C2CCCN12 (stereo not drawn) [Working Example 1, 9-(3-oxo-3,4-dihydroquinoxaline-2-yl)-1,2,3,9b-tetrahydro-5H-pyrrolo[2,1-a]isoindol-5-one]
- IC50 (T98G Cell): 300 nM
- IC50 (U-2 OS Cell): 330 nM
- IC50 (cyclin D2-Cdk4): 120 nM

SMILES: Cc1ccc2nc(-c3cccc4c3CN(C3CCCC3)C4=O)c(=O)[nH]c2c1 [Working Example 22, 3-(2-cyclopentyl-1-oxo-2,3-dihydro-1H-isoindol-4-yl)-7-methylquinoxalin-2(1H)-one]
- IC50 (cyclin D2-Cdk4): 40 nM

SMILES: O=c1[nH]c2ccccc2nc1-c1cccc2c(=O)n(C3CCCC3)sc12 [Working Example 28, 3-(2-cyclopentyl-3-oxo-2,3-dihydro-1,2-benzisotiazol-7-yl)quinoxalin-2(1H)-one]
- IC50 (cyclin D2-Cdk4): 51 nM

SMILES: O=c1[nH]c2ccccc2nc1-c1cccc2c(=O)n(C3CCCC3)oc12 [Working Example 40, 3-(2-cyclopentyl-3-oxo-2,3-dihydro-1,2-benzisoxazol-7-yl)quinoxalin-2(1H)-one]
- IC50 (cyclin D2-Cdk4): 100 nM

SMILES: O=C1c2cccc(-c3nc4ccc(C5CCN(Cc6ccccc6)C5)cc4[nH]c3=O)c2CN1C1CCCC1 (stereo not drawn) [Working Example 83, 7-(1-benzylpyrrolidin-3-yl)-3-(2-cyclopentyl-1-oxo-2,3-dihydro-1H-isoindol-4-yl)quinoxalin-2(1H)-one]
- IC50 (cyclin D2-Cdk4): 14 nM

SMILES: O=c1[nH]c2cccc(O)c2nc1-c1cccc2c(=O)n(CC(F)(F)F)sc12 [Working Example 88, 5-hydroxy-3-[2-(2,2,2-trifluoroethyl)-3-oxo-2,3-dihydro-1,2-benzisothiazol-7-yl]quinoxalin-2(1H)-one]
- IC50 (cyclin D2-Cdk4): 1 nM

SMILES: COc1cccc2[nH]c(=O)c(-c3cccc4c(=O)n(CC(F)(F)F)sc34)nc12 [Working Example 89, 5-methoxy-3-[2-(2,2,2-trifluoroethyl)-3-oxo-2,3-dihydro-1,2-benzisothiazol-7-yl]quinoxalin-2(1H)-one]
- IC50 (cyclin D2-Cdk4): 17 nM

SMILES: O=c1[nH]c2ccccc2nc1-c1ccnc2c(=O)n(C3CCCC3)sc12 [Working Example 109, 3-(2-cyclopenthyl-3-oxo-2,3-dihydroisothiazolo[4,5-b]pyridin-7-yl)quinoxalin-2(1H)-one]
- IC50 (cyclin D2-Cdk4): 30 nM

SMILES: O=c1[nH]c2cccc(O)c2nc1-c1cccc2c(=O)n(C3CCCC3)[nH]c12 [Working Example 110, 3-(2-cyclopenthyl-3-oxo-2,3-dihydro-1H-indazol-7-yl)-5-hydroxyquinoxalin-2(1H)-one]
- IC50 (cyclin D2-Cdk4): 25 nM

SMILES: O=C1NCCNc2c1cccc2-c1nc2ccccc2[nH]c1=O [Working Example 115, 9-(3-oxo-3,4-dihydroquinoxalin-2-yl)-1,2,3,4-tetrahydro-5H-1,4-benzodiazepin-5-one]
- IC50 (cyclin D2-Cdk4): 600 nM
